Measured values reported in PubChem BioAssay AID504551 (Southern Research Specialized Biocontainment Screening …, 2011).

tested on: MAGI-CCR5/HeLa-R5-16 cell fusion, beta-gal luminescence; assay: HIV-1 entry blockers, R5 Env-mediated fusion – MAGI-CCR5 and HeLa-R5-16 cells, 2% serum, set 2, dose response (AID 504551)

Structure (SMILES) | IC50 [µM]
Cc1c2c(=O)n(-c3nc4ccccc4s3)nc-2cc(O)n1C1CC1 | 3.75
Cc1c2c(=O)n(-c3nc4ccccc4s3)nc-2cc(O)n1Cc1cccs1 | 3.5
Cc1c2c(=O)n(-c3nc4ccccc4s3)nc-2cc(O)n1Cc1cccnc1 | 3.64
COc1ccccc1Cn1c(O)cc2nn(-c3nc4ccccc4s3)c(=O)c-2c1C | 3.73
Cc1c2c(=O)n(-c3nc4ccccc4s3)nc-2cc(O)n1CCc1cccs1 | 3.7
Cc1c2c(=O)n(-c3nc4ccccc4s3)nc-2cc(O)n1Cc1ccccc1 | 3.94
COc1ccc(Cn2c(O)cc3nn(-c4nc5ccccc5s4)c(=O)c-3c2C)cc1 | 3.57
Cc1c2c(=O)n(-c3nc4ccccc4s3)nc-2cc(O)n1Cc1ccncc1 | 3.94

Continued by falling IC50, values first:

IC50 [µM] | Structure (SMILES)
3.49 | COc1ccc(CCn2c(O)cc3nn(-c4nc5ccccc5s4)c(=O)c-3c2C)cc1
3.42 | Cc1c2c(=O)n(-c3nc4ccccc4s3)nc-2cc(O)n1Cc1ccc(F)cc1
3.4 | Cc1c2c(=O)n(-c3nc4ccccc4s3)nc-2cc(O)n1Cc1ccccc1Cl
3.36 | Cc1c2c(=O)n(-c3nc4ccccc4s3)nc-2cc(O)n1CCc1ccc(O)cc1
3.25 | Cc1c2c(=O)n(-c3nc4ccccc4s3)nc-2cc(O)n1CCC(C)C
